Results taken from patent US20230078764A1 (Yumanity Therapeutics, Inc., priority 2019, published 2023).
Read-outs that look alike come from different tables or passages of the source.

What was measured:
human SCD5 = molecular target: T1, human SCD5 (Homo sapiens, UniProt Q86SK9); test: Growth inhibition of yeast strain expressing human SCD5 as sole desaturase (OLE1 deleted), OD600 readout; assay type: cell-based
T1 construct: expressed in transfected cells; host or cells: yeast strain with OLE1 deleted, plasmid-borne human SCD5 (selected in SD-Ura)
T1 sequence (Q86SK9 1-330): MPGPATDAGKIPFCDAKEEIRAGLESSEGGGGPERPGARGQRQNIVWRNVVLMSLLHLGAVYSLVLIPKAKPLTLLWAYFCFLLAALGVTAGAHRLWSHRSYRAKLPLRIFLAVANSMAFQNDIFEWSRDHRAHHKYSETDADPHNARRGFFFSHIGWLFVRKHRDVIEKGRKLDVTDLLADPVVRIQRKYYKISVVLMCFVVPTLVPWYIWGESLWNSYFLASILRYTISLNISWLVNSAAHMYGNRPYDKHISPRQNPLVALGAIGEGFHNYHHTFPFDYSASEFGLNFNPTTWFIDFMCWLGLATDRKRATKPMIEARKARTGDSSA

human SCD1 = molecular target: T2, human SCD1 (Homo sapiens, UniProt O00767); test: Growth inhibition of yeast strain expressing human SCD1 as sole desaturase (OLE1 deleted), OD600 readout; assay type: cell-based
T2 construct: expressed in transfected cells; host or cells: yeast strain with OLE1 deleted, plasmid-borne human SCD1 (selected in SD-Ura)
T2 sequence (O00767 1-359): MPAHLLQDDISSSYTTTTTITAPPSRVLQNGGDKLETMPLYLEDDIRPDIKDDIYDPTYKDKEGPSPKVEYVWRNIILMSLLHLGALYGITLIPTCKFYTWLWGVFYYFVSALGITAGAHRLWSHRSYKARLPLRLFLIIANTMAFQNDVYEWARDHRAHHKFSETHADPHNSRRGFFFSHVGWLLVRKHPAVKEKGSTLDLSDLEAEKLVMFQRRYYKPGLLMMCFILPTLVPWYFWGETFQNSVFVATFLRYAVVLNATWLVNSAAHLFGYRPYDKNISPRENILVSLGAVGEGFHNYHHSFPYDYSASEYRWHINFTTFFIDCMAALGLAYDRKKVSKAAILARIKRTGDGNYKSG

[1] = yeast strain expressing human SCD5 as sole desaturase, growth (OD600) after 40 h at 30° C., read-out: SCD5 IC50
[2] = yeast strain expressing human SCD1 as sole desaturase, growth (OD600) after 40 h at 30° C., read-out: SCD1 IC50

| Structure (SMILES) | IC50 (human SCD5; [1]) | IC50 (human SCD1; [2]) | IC50 (human SCD5; SCD5 IC50) | IC50 (human SCD1; SCD1 IC50) |
| --- | --- | --- | --- | --- |
| O=C(Nc1ccc(Cc2cccc(F)c2)cn1)c1ccc(=O)n(CC2CC2)n1 [Compound 77, 1-(cyclopropylmethyl)-N-(5-(3-fluorobenzyl)pyridin-2-yl)-6-oxo-1,6-dihydropyridazine-3-carboxamide] | 6730 nM | > 45000 nM |  |  |
| O=C(Nc1ccc(Cc2cccc(F)c2)cn1)c1coc(Cl)n1 [Compound 645] | 210 nM | 1300 nM |  |  |
| C=C(OCC)c1ccc(C(=O)Nc2ccc(Cc3cccc(Cl)c3)cn2)cn1 [Compound 320] | 1580 nM | > 45000 nM |  |  |
| CN1N=C(C(=O)Nc2ccc(CC3CC3)cn2)CCC1=O [Compound 468] | > 45000 nM | > 45000 nM |  |  |
| Cn1cc(C(=O)Nc2nnc(Cc3cccc(F)c3)s2)ccc1=O [Compound 461] | > 45000 nM | > 45000 nM |  |  |
| Cc1ccc(NC(=O)c2ccc(Cc3cccc(F)c3)cn2)nn1 [Compound 126, 5-(3-Fluorobenzyl)-N-(6-methylpyridazin-3-yl)picolinamide] | 230 nM | 830 nM |  |  |
| CN1N=C(C(=O)Nc2ccc(Cc3cc(F)cc(Cl)c3)cn2)CCC1=O [Example 28, N-(5-(3-chloro-5-fluorobenzyl)pyridin-2-yl)-1-methyl-6-oxo-1,4,5,6-tetrahydropyridazine-3-carboxamide] | 20 nM | 1950 nM |  |  |
| O=C(Nc1ccc(Cc2ccc(F)c(Cl)c2)cn1)c1ccc2nncn2c1 [Compound 148, N-(5-(3-chloro-4-fluorobenzyl)pyridin-2-yl)-[1,2,4]triazolo[4,3-a]pyridine-6-carboxamide] | 10 nM | 10 nM |  |  |
| Cn1nc(C(=O)Nc2ccc(COc3cccc(Cl)c3)cn2)ccc1=O [Compound 262] | 260 nM | 3980 nM |  |  |
| Cc1cc(C(=O)Nc2ccc(Cc3cc(F)cc(C#N)c3)cn2)nn(C)c1=O [Compound 609] | 284 nM | > 45000 nM |  |  |
| Cn1nc(C(=O)Nc2ncc(Cc3ccc(F)c(F)c3)cc2F)ccc1=O [Compound 577] | 6400 nM | 23000 nM |  |  |
| Cn1nc(C(=O)Nc2ccc(COc3ccc(Cl)c(F)c3)cn2)ccc1=O [Compound 667] | 310 nM | > 45000 nM |  |  |
| Cn1nc(C(=O)Nc2ccc(Cc3ccc(F)c(C#N)c3)cn2)ccc1=O [Compound 564] | 62 nM | 1400 nM |  |  |
| CN1N=C(C(=O)Nc2ccc(CCc3cccc(Cl)c3)nn2)CCC1=O [Compound 246] | 1590 nM | 6450 nM |  |  |
| CN1N=C(C(=O)Nc2ncc(Cc3cc(F)cc(Cl)c3)s2)CCC1=O [Compound 216, N-(5-(3-chloro-5-fluorobenzyl)thiazol-2-yl)-1-methyl-6-oxo-1,4,5,6-tetrahydropyridazine-3-carboxamide] | 20 nM | 10 nM |  |  |
| Cn1cc(C(=O)Nc2ccc(OCc3cc(F)cc(C#N)c3)cn2)ccc1=O [Compound 427] | > 45000 nM | > 45000 nM |  |  |
| O=C(Nc1ccc(Cc2ccc(F)c(Cl)c2)cn1)c1ccc(=O)n(C2CC2)n1 [Compound 76, N-(5-(3-chloro-4-fluorobenzyl)pyridin-2-yl)-1-cyclopropyl-6-oxo-1,6-dihydropyridazine-3-carboxamide] | 10 nM | 10 nM |  |  |
| Cc1cc(C(=O)Nc2ccc(Cc3cc(F)cc(C#N)c3)cn2)nc(C)n1 [Compound 606] | 170 nM | 610 nM |  |  |
| Cn1nc(C(=O)Nc2ccc(Cc3ccc(F)c(F)c3)cn2)ccc1=O [Example 35, N-(5-(3,4-difluorobenzyl)pyridin-2-yl)-1-methyl-6-oxo-1,6-dihydropyridazine-3-carboxamide] | 300 nM | > 45000 nM |  |  |
| Cn1nc(C(=O)Nc2nc(Cl)c(Cc3cccc(F)c3)s2)ccc1=O [Compound 232, N-(4-chloro-5-(3-fluorobenzyl)thiazol-2-yl)-1-methyl-6-oxo-1,6-dihydropyridazine-3-carboxamide] | 70 nM | 140 nM |  |  |

| Structure (SMILES) | IC50 (human SCD5; [1]) | IC50 (human SCD1; [2]) | IC50 (human SCD5; SCD5 IC50) | IC50 (human SCD1; SCD1 IC50) |
| --- | --- | --- | --- | --- |
| Cn1c(C(=O)Nc2ccc(Cc3cccc(F)c3)cn2)cc(=O)n1C [Compound 459] | > 45000 nM | > 45000 nM |  |  |
| Cn1nc(C(=O)Nc2ccc(COc3cc(Cl)cc(C#N)c3)cn2)ccc1=O [Compound 671] | 2000 nM | > 45000 nM |  |  |
| Cc1cc(C(=O)Nc2ccc(Cc3ccc(F)c(C#N)c3)cn2)nn(C)c1=O [Compound 610] | 600 nM | 3400 nM |  |  |
| CCn1cc(C(=O)Nc2ccc(Cc3cccc(Cl)c3)cn2)ccc1=O [Compound 84, N-(5-(3-chlorobenzyl)pyridin-2-yl)-1-ethyl-6-oxo-1,6-dihydropyridine-3-carboxamide] | 370 nM | 6660 nM |  |  |
| CN1N=C(C(=O)Nc2ccc(CN3CCC(C)(C)CC3)cn2)CCC1=O [Compound 412] | > 45000 nM | > 45000 nM |  |  |
| Cn1cc(C(=O)Nc2ccc(Cc3ccc(C(F)(F)F)cc3)cn2)ccc1=O [Compound 63, 1-methyl-6-oxo-N-(5-(4-(trifluoromethyl)benzyl)pyridin-2-yl)-1,6-dihydropyridine-3-carboxamide] |  |  | 320 nM | 380 nM |
| Cn1nc(NC(=O)c2ccc(Cc3ccc(F)cc3)cn2)ccc1=O [Compound 495] | 15 nM | 560 nM |  |  |
| O=C(Nc1ccc(Cc2cccc(F)c2)cn1)c1ncc(F)cn1 [Compound 504] | 260 nM | 2800 nM |  |  |
| O=C(Nc1ccc(Cc2cccc(F)c2)cn1)c1ccc(CO)nc1 [Compound 119, N-(5-(3-fluorobenzyl)pyridin-2-yl)-6-(hydroxymethyl)nicotinamide] | 10 nM | 10 nM |  |  |
| CN1N=C(C(=O)Nc2nnc(Cc3cccc(Cl)c3)[nH]2)CCC1=O [Compound 407] | > 45000 nM | > 45000 nM |  |  |
| CN1N=C(C(=O)Nc2ccc(Cc3cccc(C(F)(F)F)c3)cn2)CCC1=O [Example 18, 1-methyl-6-oxo-N-(5-(3-(trifluoromethyl)benzyl)pyridin-2-yl)-1,4,5,6-tetrahydropyridazine-3-carboxamide] | 1600 nM | 8570 nM |  |  |
| O=C(Nc1ccc(Cc2ccc(F)c(F)c2)cn1)c1ccnnc1 [Compound 621] | 25 nM | 35 nM |  |  |
| CN1N=C(C(=O)NCc2ccc(Cc3cccc(F)c3)cn2)CCC1=O [Compound 381] | > 45000 nM | > 45000 nM |  |  |
| CN1N=C(C(=O)Nc2ccc(Cc3cncc(C(F)(F)F)c3)cn2)CCC1=O [Compound 277] | 13400 nM | > 45000 nM |  |  |
| CC(O)c1ccc(C(=O)Nc2ccc(Cc3cccc(Cl)c3)cn2)nn1 (stereo not drawn) [Compound 512] | 60 nM | 49 nM |  |  |
| Cn1ccc(C(=O)Nc2ccc(Cc3cccc(F)c3)cn2)nc1=O [Compound 335] | 690 nM | 15400 nM |  |  |
| CCn1cc(C(=O)Nc2ccc(CC3CCCCC3)cn2)ccc1=O [Compound 326] | 4710 nM | > 45000 nM |  |  |
| CC(=O)c1ccc(C(=O)Nc2ccc(Cc3cccc(Cl)c3)cn2)cn1 [Compound 354] | 280 nM | 6780 nM |  |  |
| CN1N=C(C(=O)Nc2ccc(Cc3ccc(Cl)s3)cn2)CCC1=O [Example 21, N-(5-((5-chlorothiophen-2-yl)methyl)pyridin-2-yl)-1-methyl-6-oxo-1,4,5,6-tetrahydropyridazine-3-carboxamide] | 1780 nM | > 45000 nM |  |  |
